Laboratory results taken from ChEMBL document CHEMBL1201862, “PubChem BioAssay data set” (2004).
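Briefly, cells in 96-well plates were exposed to five compound concentrations for 48 h, and endpoints were estimated by linear interpolation. Abbreviation: GI50, concentration required for 50% inhibition of growth.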 Active and inactive are the calls of the source. Rule as the data show it: active = GI50 up to about 1.1 µM and inactive = higher.

Tests used:
Assay in all cases: DTP human tumour cell line panel, 48 h
A549 = test system: A549
EKVX = test system: EKVX
HCC 2998 = test system: HCC 2998
HCT-116 = test system: HCT-116
HL-60 = test system: HL-60
HOP-62 = test system: HOP-62
Hs-578T = test system: Hs-578T
IGROV-1 = test system: IGROV-1
M14 = test system: M14
MDA-MB-231 = test system: MDA-MB-231
MOLT-4 = test system: MOLT-4
NCI-H522 = test system: NCI-H522
OVCAR-3 = test system: OVCAR-3
PC-3 = test system: PC-3
RPMI-8226 = test system: RPMI-8226
SK-MEL-5 = test system: SK-MEL-5
SN12C = test system: SN12C
T47D = test system: T47D
NCI-H226 = test system: NCI-H226

Structure (SMILES) | GI50 (A549) | GI50 (EKVX) | GI50 (HCC 2998) | GI50 (HCT-116) | GI50 (HL-60) | GI50 (HOP-62) | GI50 (Hs-578T) | GI50 (IGROV-1) | GI50 (M14) | GI50 (MDA-MB-231) | GI50 (MOLT-4) | GI50 (NCI-H522) | GI50 (OVCAR-3) | GI50 (PC-3) | GI50 (RPMI-8226) | GI50 (SK-MEL-5) | GI50 (SN12C) | GI50 (T47D) | GI50 (NCI-H226)
CCC(C)C(NC(=O)C(CCCCN)NC(=O)C(NC(=O)C(CCC(N)=O)NC(=O)C(CCCNC(=N)N)NC(C)=O)C(C)CC)C(=O)NC(Cc1c[nH]c2ccccc12)C(=O)NC(Cc1ccccc1)C(=O)NC(CCC(N)=O)C(=O)NC(CC(N)=O)C(=O)NC(CCCNC(=N)N)C(=O)NC(CCCNC(=N)N)C(=O)NC(CCSC)C(=O)NC(CCCCN)C(=O)NC(Cc1c[nH]c2ccccc12)C(=O)NC(CCCCN)C(=O)NC(CCCCN)C(N)=O (stereo not given) | > 50 µM (inactive) | > 50 µM (inactive) | > 50 µM (inactive) | > 50 µM (inactive) | > 50 µM (inactive) | 39.6 µM (inactive) | > 50 µM (inactive) | > 50 µM (inactive) | 17.9 µM (inactive) | 14.3 µM (inactive) | > 50 µM (inactive) | > 50 µM (inactive) | 31.1 µM (inactive) | > 50 µM (inactive) | 11.2 µM (inactive) | 22.5 µM (inactive) | 16.5 µM (inactive) | 16.3 µM (inactive) | –
COc1ccc(C2CC(c3ccc4ccccc4c3O)=NN2)cc1OC (stereo not given) | 38 µM (inactive) | – | 45.6 µM (inactive) | 38.6 µM (inactive) | – | 54.6 µM (inactive) | 76.7 µM (inactive) | 83.4 µM (inactive) | 66.2 µM (inactive) | 25.2 µM (inactive) | 24.7 µM (inactive) | 40.1 µM (inactive) | 33.1 µM (inactive) | 33.9 µM (inactive) | 30.4 µM (inactive) | 58.5 µM (inactive) | 48.6 µM (inactive) | 45 µM (inactive) | > 100 µM (inactive)
CC(=O)OCC(C)C1=C(O)C(=O)C2(C)C/C=C(/C)CC/C=C(\C)CCC(O)C(C)CCC12 (stereo not given) | 18 µM (inactive) | 16.4 µM (inactive) | – | 18.8 µM (inactive) | 17.5 µM (inactive) | 17 µM (inactive) | 19.6 µM (inactive) | 15.2 µM (inactive) | 17.8 µM (inactive) | 16.3 µM (inactive) | 10 µM (inactive) | 17.3 µM (inactive) | 15.1 µM (inactive) | 15.3 µM (inactive) | 11.9 µM (inactive) | 17.7 µM (inactive) | 19 µM (inactive) | 1.94 µM (inactive) | 17.6 µM (inactive)
S=C(NCCc1ccccn1)N/N=C(\c1ccccc1)c1ccccn1 | 3.4 µM (inactive) | 0.0525 µM (active) | 12.1 µM (inactive) | < 0.01 µM (active) | < 0.0359 µM (active) | 1.77 µM (inactive) | 20.5 µM (inactive) | < 0.0103 µM (active) | 0.0378 µM (active) | 0.0247 µM (active) | < 0.01 µM (active) | < 0.01 µM (active) | 0.0989 µM (active) | 0.0583 µM (active) | 0.0634 µM (active) | 1.45 µM (inactive) | < 0.015 µM (active) | < 0.0444 µM (active) | –
CCCC1=NC(C(F)(F)F)(C(F)(F)F)N=C(N2CCOCC2)O1 | > 100 µM (inactive) | > 100 µM (inactive) | > 100 µM (inactive) | > 100 µM (inactive) | > 100 µM (inactive) | > 100 µM (inactive) | > 100 µM (inactive) | > 100 µM (inactive) | > 100 µM (inactive) | > 100 µM (inactive) | > 100 µM (inactive) | – | > 100 µM (inactive) | > 100 µM (inactive) | > 100 µM (inactive) | > 100 µM (inactive) | > 100 µM (inactive) | > 100 µM (inactive) | > 100 µM (inactive)
Cn1c(-c2cccc(N)c2)[n+](C)c2ccccc21 | 40.9 µM (inactive) | > 100 µM (inactive) | > 100 µM (inactive) | > 100 µM (inactive) | 36.1 µM (inactive) | > 100 µM (inactive) | 64.6 µM (inactive) | > 100 µM (inactive) | > 100 µM (inactive) | > 100 µM (inactive) | > 100 µM (inactive) | – | > 100 µM (inactive) | > 100 µM (inactive) | > 100 µM (inactive) | 57.3 µM (inactive) | – | > 100 µM (inactive) | > 100 µM (inactive)
Oc1cnnc2nc3ccccc3n12 | > 100 µM (inactive) | 34.8 µM (inactive) | > 100 µM (inactive) | > 100 µM (inactive) | > 100 µM (inactive) | > 100 µM (inactive) | > 100 µM (inactive) | > 100 µM (inactive) | > 100 µM (inactive) | > 100 µM (inactive) | > 100 µM (inactive) | > 100 µM (inactive) | – | > 100 µM (inactive) | – | > 100 µM (inactive) | > 100 µM (inactive) | > 100 µM (inactive) | > 100 µM (inactive)
CC(C)(C)C1=CC(C)(n2[nH]c(=O)n(-c3ccccc3)c2=O)C=C(C(C)(C)C)C1=O | > 100 µM (inactive) | – | > 100 µM (inactive) | > 100 µM (inactive) | – | – | > 100 µM (inactive) | – | – | > 100 µM (inactive) | – | > 100 µM (inactive) | – | > 100 µM (inactive) | 25.2 µM (inactive) | > 100 µM (inactive) | > 100 µM (inactive) | 59.6 µM (inactive) | > 100 µM (inactive)
c1ccc2c3c(ccc2c1)CSCc1ccc2ccccc2c1-3 | > 100 µM (inactive) | > 100 µM (inactive) | > 100 µM (inactive) | > 100 µM (inactive) | > 10 µM (inactive) | > 100 µM (inactive) | > 100 µM (inactive) | > 100 µM (inactive) | > 100 µM (inactive) | > 100 µM (inactive) | 36.6 µM (inactive) | > 100 µM (inactive) | > 100 µM (inactive) | > 100 µM (inactive) | > 100 µM (inactive) | > 100 µM (inactive) | > 100 µM (inactive) | > 100 µM (inactive) | –
COc1ccc(OCc2ccc3nc(-c4ccccc4)c(Cl)nc3c2)cc1 | 40 µM (inactive) | 50.5 µM (inactive) | 27.7 µM (inactive) | 19.2 µM (inactive) | 12.3 µM (inactive) | 14.2 µM (inactive) | 23.4 µM (inactive) | 38 µM (inactive) | 33.9 µM (inactive) | 11.7 µM (inactive) | 34.4 µM (inactive) | 10.7 µM (inactive) | 84.3 µM (inactive) | 40.9 µM (inactive) | 9.93 µM (inactive) | 6.89 µM (inactive) | 24.3 µM (inactive) | 45 µM (inactive) | –
O=C(C#Cc1cn(C2CC(O)C(CO)O2)c(=O)[nH]c1=O)c1ccccc1 (stereo not given) | > 100 µM (inactive) | > 100 µM (inactive) | > 100 µM (inactive) | 42.5 µM (inactive) | – | > 100 µM (inactive) | 79.3 µM (inactive) | > 100 µM (inactive) | 28.5 µM (inactive) | > 100 µM (inactive) | – | 5.6 µM (inactive) | 21.1 µM (inactive) | > 100 µM (inactive) | 44 µM (inactive) | 88.7 µM (inactive) | 31.8 µM (inactive) | 19.5 µM (inactive) | 70 µM (inactive)
CN(CCNC(=O)c1nn(-c2ccc(Cl)cc2Cl)c2c1Cc1ccccc1-2)CCNC(=O)c1nn(-c2ccc(Cl)cc2Cl)c2c1Cc1ccccc1-2 | 3.29 µM (inactive) | 20 µM (inactive) | 1.75 µM (inactive) | 2.1 µM (inactive) | 1.55 µM (inactive) | 5.21 µM (inactive) | 1.53 µM (inactive) | 4.53 µM (inactive) | 1.81 µM (inactive) | 2.66 µM (inactive) | 2.12 µM (inactive) | 1.58 µM (inactive) | 3.55 µM (inactive) | 5.87 µM (inactive) | 1.62 µM (inactive) | 1.74 µM (inactive) | 3.79 µM (inactive) | 3.77 µM (inactive) | –
CN1CCc2c(sc3ncn(N)c(=N)c23)C1 | > 100 µM (inactive) | > 100 µM (inactive) | – | > 100 µM (inactive) | > 100 µM (inactive) | > 100 µM (inactive) | > 100 µM (inactive) | > 100 µM (inactive) | > 100 µM (inactive) | > 100 µM (inactive) | > 100 µM (inactive) | 45.7 µM (inactive) | > 100 µM (inactive) | > 100 µM (inactive) | > 100 µM (inactive) | > 100 µM (inactive) | > 100 µM (inactive) | > 100 µM (inactive) | 78.9 µM (inactive)
NC(=S)N/N=C/c1c[nH]c2ccccc12 | > 100 µM (inactive) | 2.86 µM (inactive) | – | > 100 µM (inactive) | 33.7 µM (inactive) | > 100 µM (inactive) | > 100 µM (inactive) | > 100 µM (inactive) | > 100 µM (inactive) | > 100 µM (inactive) | 12.3 µM (inactive) | 52.5 µM (inactive) | > 100 µM (inactive) | > 100 µM (inactive) | 79.6 µM (inactive) | > 100 µM (inactive) | > 100 µM (inactive) | 99.3 µM (inactive) | > 100 µM (inactive)
COc1ccc2[nH]cc(C=C3C(=O)NC(=S)NC3=O)c2c1 | > 100 µM (inactive) | > 100 µM (inactive) | > 100 µM (inactive) | > 100 µM (inactive) | > 100 µM (inactive) | 45.9 µM (inactive) | 45.8 µM (inactive) | > 100 µM (inactive) | > 100 µM (inactive) | 48.6 µM (inactive) | 62.4 µM (inactive) | > 100 µM (inactive) | > 100 µM (inactive) | > 100 µM (inactive) | – | > 100 µM (inactive) | > 100 µM (inactive) | > 100 µM (inactive) | > 100 µM (inactive)
